{"source": "patent US20080075662A1", "about": "“Novel Method for Analyzing Nucleic Acid Et Use Thereof for Evaluating the Degree of Mrna Editing of the Serotonin 5-Ht2c Receptor” (priority 2002, published 2008)", "system": "oligonucleotide complementary to the probe with the exception of the base complementary to the dI at position 15", "experiment": "Specificity of the array of probes: hybridization with a single-mismatch oligonucleotide", "assay_type": "binding", "note": "[I] = hypoxanthine (inosine)", "data": [{"substance": "d(CAITICGTIITCCTITT) (DNA CANTNCGTNNTCCTNTT; DNA, [I] at 3, 5, 9, 10, 15, backbone not given here) [SEQ ID No. 32]", "values": [{"measurement": "hybridization with mismatched oligonucleotide", "setting": "at the hybridization temperature chosen for all probes (between 61.1 and 54.13° C., preferably about 57.6° C.)", "result": "does not hybridize"}, {"measurement": "Tm", "setting": "duplex with oligonucleotide mismatched opposite the dI at position 15 of the probe", "result": 49.4, "unit": "°C"}]}]}
